From patent US12521437B2 (Synthorx, Inc., priority 2019, dated 2026)

What was measured:
NK cells = assay: pSTAT5 signaling in human LRS-derived PBMC samples, NK cells (flow cytometry); type: cell-based; details: Table 13 (Example 11)
Procedure: (§1) These studies were performed at PrimityBio LLC (Fremont, CA). […] Staining panel for flow cytometry study of LRS-derived PBMC samples include markers for Effector T cells (Teff: CD3+, CD4+, CD8+, CD127+), NK cells (CD3-, CD16+), and Regulatory T cells (Treg: CD3+, CD4+, CD8-, IL-2Rα+, CD127-1).
(§2) Conjugates of Table 13 were synthesized by modification of SEQ NO. 1. These studies were performed at PrimityBio LLC (Fremont, CA).

CTLL-2 = CTLL-2 proliferation; type: cell-based, mouse; details: Table 13 (Example 11)
CD8+ T cells = assay: pSTAT5 signaling in human LRS-derived PBMC samples, CD8+ T cells (flow cytometry); type: cell-based; details: Table 13 (Example 11)
Procedure: as §1
(§3) These studies were performed at PrimityBio LLC (Fremont, CA). […] Staining panel for flow cytometry study of LRS-derived PBMC samples include markers CD4, CD4+ memory central, CD4+ memory effect, CD4+ memory T cells, CD4+ Naive T cells, CD4+ T cells, CD8, CD8+ memory central, CD8+ memory effect, CD8+ memory T cells, CD8+ Naive T cells, CD8+ T cells, NK cells, and T regulatory cells.
as §2

Treg cells = assay: pSTAT5 signaling in human LRS-derived PBMC samples, Treg cells (flow cytometry); type: cell-based; details: for EC50 for pSTAT5 signaling, Treg cells: Table 13 (Example 11); for Fold increase in Treg EC50 vs native IL-2: compared to native IL-2 run in each individual experiment
Procedure: as §1, §3, §2

[1] = human transferrin; cited from earlier work

Substance | EC50 for pSTAT5 signaling, NK cells (NK cells) [pg/ml] | EC50 CTLL-2 proliferation (CTLL-2) [ng/mL] | CD8+/Treg ratio (CD8+ T cells) | EC50 for pSTAT5 signaling, CD8+ Tcells (CD8+ T cells) [pg/ml] | EC50 for pSTAT5 signaling, Treg cells (Treg cells) [pg/ml] | Fold increase in Treg EC50 vs native IL-2 (Treg cells) | half-life [1] [h]
N88R/D109_30kD: IL-2 variant with N88R substitution and 30 kD PEG at D109 | 2780819 | 59.577 | 71 | 12503386 | 175805 | 3663 | 
N88R: IL-2 variant with N88R substitution [reference compound] | 2312847 | 0.363 | 1356 | 15025734 | 11082 | 148 | 
V91K: IL-2 variant with V91K substitution [reference compound] | 20537 | 0.0995 | 720 | 102255 | 142 | 3 | 
human transferrin: 679 amino acid polypeptide that is about 80 kDa in size and comprises two Fe^3+ binding sites |  |  |  |  |  |  | 170 to 288
